Measured values reported in BindingDB's records for doi:10.1021/jm00024a011 (Boehringer Ingelheim Pharmaceuticals, 1995).

Target: T1, Gag-Pol polyprotein [600-1027,R876K]/[600-1155] (Human immunodeficiency virus 1, UniProt P03366, R876K)
T1 construct: 600-1027; 600-1155
Assay: HIV-1 RT Assay

Row | SMILES | IC50 (pH 7.8, 22 °C) | IC50
1 | O=C1Nc2c(CO)ccnc2N(C2CC2)c2ncccc21 | 3000 nM | –
2 | Nc1ccc(OCc2ccnc3c2NC(=O)c2cccnc2N3C2CC2)cc1 [7-(4-aminophenoxymethyl)-2-cyclopropyl-2,4,9,15-tetraazatricyclo[9.4.0.0^{3,8}]pentadeca-1(11),3,5,7,12,14-hexaen-10-one] | – | 100 nM
